Data published in patent US10653658B2, “Biofilm inhibiting compositions enhancing weight gain in livestock” (Akeso Biomedical, Inc., priority 2015, dated 2020).

Legend:
Assay type in all cases: in vivo
[1] = system: Campylobacter; assay: Campylobacter carriage in chickens, cfu/g of droppings and caeca at day 42 (Example 1)
Protocol: A study was performed to evaluate growth promotion and reduction of Campylobacter carriage using FeQ and FeTyr in Ross 308 male broilers with 7 treatment groups. Each treatment group comprised four replicates of 10 birds per pen (40 birds/treatment group and 4 pens of 10 birds/treatment group), with 2 control groups and 5 test groups. All the test groups and one of the control groups were exposed at day 20 of the trial to dirty litter, which tested positive for Campylobacter. This method was used to provide a more natural method to Campylobacter challenge the birds. Thus there was a positive control where one treatment group was challenged with Campylobacter and one negative control group where the birds were not challenged, and five treatment groups that were all challenged with Campylobacter. The total number of birds used in the 7 treatment groups was 280. Treatment group 1 was a negative control where birds just received the commercial feed, and were not challenged with dirty litter containing Campylobacter. Treatment group 2 was the positive control where the birds received the commercial feed, and were challenged with dirty litter containing Campylobacter at day 20. Treatment group 3 received 0.22 g/L of FeQ in their drinking water and 0.22 g/Kg FeQ in their feed during the entire trial, and was challenged with dirty litter containing Campylobacter at day 20. Treatment group 5 received 0.22 g/L of FeQ in their drinking water during the entire trial, and was challenged with dirty litter containing Campylobacter at day 20. Treatment group 6 received 0.22 g/kg FeQ in their feed during the entire trial, and was challenged with dirty litter containing Campylobacter at day 20. Treatment group 7 received 0.022 g/L FeQ in their drinking water during the entire trial, and was challenged with dirty litter containing Campylobacter at day 20. Treatment group 8 received 0.02 g/L FeTyr in their drinking water during the entire trial, and was challenged with dirty litter containing Campylobacter at day 20. The FeTyr was pre-dissolved in DMSO, and diluted to provide a solution of 0.02 g/L of FeTyr in water. (An additional treatment group 4 was terminated due to solubility issues.)
Prior to challenging the chickens with dirty litter containing Campylobacter at day 20, each pen was tested for Campylobacter using cloacal swabs. All pens tested negative for Campylobacter prior to the challenge. At day 20, litter, which was naturally Campylobacter-contaminated, was tested to confirm the presence of Campylobacter, and then added (approximately 2 kg/pen) to the litter in all pens except in pens for treatment group 1 (the negative control). At day 28, the pen litter was sampled to confirm the presence or absence of Campylobacter. At day 41 and 42, caecal samples were taken from 3 birds per pen (12 birds per treatment group) and tested for Campylobacter enumeration. At day 42, digesta, fecal samples, and caecal content was taken from all birds, and pooled per pen. Two birds per pen were also taken from treatment groups 1-3, euthanized, and blood samples taken. Samples were analyzed for blood chemistry, including analysis for alkaline phosphatase, aspartate amino transferase, alanine amino transferase, gamma-glutamyl transferase, lactate dehydrogenase, total protein, albumin, globulin, amylase and glucose.

[2] = system: Campylobacter jejuni; assay: Campylobacter carriage in chickens after oral challenge, caecal contents at day 35 (Example 9); conditions: 340 μM in the drinking water; oral challenge at day 14
Protocol: A study was performed to evaluate reduction of Campylobacter carriage in chickens using ferric lactate in one treatment group, and FeQ (Q-PLEX) in a second treatment group. A third treatment group served as a positive control. The ferric lactate and FeQ were administered to the treatment groups at a concentration of 340 μM in the drinking water. Each treatment group comprised 12 birds per pen. All three treatment groups were orally challenged with 10^5 cfu of Campylobacter jejuni at day 14 of the trial. At day 35 all birds were euthanized, and quantitative bacteriology performed on caecal contents.

[3] = system: Campylobacter; assay: Campylobacter cfu/g of caeca at day 42 (Example 10); conditions: in feed
Protocol: A study was performed to evaluate growth promotion and reduction of Campylobacter carriage using FeTyr in Ross 308 male broilers with 7 treatment groups. Each treatment group comprised eight replicates of 10 birds per pen (80 birds/treatment group), with 2 control groups and […]. All the test groups and both of the control groups were exposed at day 20 of the trial to dirty litter, which tested positive for Campylobacter. This method was used to provide a more natural method to Campylobacter challenge the birds. Thus there were two positive controls where each treatment group was challenged with Campylobacter, and five treatment groups that were all challenged with Campylobacter. The total number of birds used in the 7 treatment groups was 560.
At day 20, litter, which was naturally Campylobacter-contaminated, was tested to confirm the presence of Campylobacter, and then added (approximately 2 kg/pen) to the litter in all pens. At day 42, caecal samples were taken and tested for Campylobacter, E. coli and Salmonella enumeration.

O=C([O-])C1(O)CC(O)C(O)C(O)C1.O=C([O-])C1(O)CC(O)C(O)C(O)C1.O=C([O-])C1(O)CC(O)C(O)C(O)C1.[Fe+3] (stereo not drawn) [FeQ, Ferric Quinate]
Campylobacter cfu/g of bird droppings at day 42 (FIG. 3), low concentration ([1]; 0.022 g/L FeQ in water, treatment group 7, considered likely experimental error): less of an effect than the other treatment groups | Campylobacter cfu/g of caeca samples at day 42 (FIG. 4), low concentration ([1]; treatment group 7: 0.022 g/L FeQ in water): highly beneficial effect | Campylobacter cfu/g of caeca samples at day 42 compared with positive control (FIG. 4) ([1]; treatment groups 3 and 5-8): positive effect on reducing Campylobacter infection | Campylobacter cfu/g of bird droppings at day 42 compared with positive control (FIG. 3) ([1]; treatment groups 3 and 6-8): positive effect on reducing Campylobacter infection | levels of Campylobacter in caeca at day 35 compared with positive control (FIG. 11) [2]: lower levels of Campylobacter in their caeca | Campylobacter cfu/g of caeca at day 42 (FIG. 14) [3]: positive effect on reducing Campylobacter infection
